In general, IC50 refers to the point on the concentration scale where inhibition reaches its midpoint. A word on the koff: it is a measure of how fast the partners let go of each other. The term kon denotes a measure of how fast the partners come together.

Like-named read-outs stand apart in the source and are kept apart here.

For assay [1], the target named is ASH1L (Homo sapiens, UniProt Q9NR48). As to conditions: inhibitor; read-out: Control IC50 (µM), Chaetocin.
The target of assay [2] is T1, NSD2 SET domain (Homo sapiens, UniProt O96028).
T1 construct: SET domain, residues 934-1241, N-terminal His tag, E. coli
T1 sequence (O96028 934-1241): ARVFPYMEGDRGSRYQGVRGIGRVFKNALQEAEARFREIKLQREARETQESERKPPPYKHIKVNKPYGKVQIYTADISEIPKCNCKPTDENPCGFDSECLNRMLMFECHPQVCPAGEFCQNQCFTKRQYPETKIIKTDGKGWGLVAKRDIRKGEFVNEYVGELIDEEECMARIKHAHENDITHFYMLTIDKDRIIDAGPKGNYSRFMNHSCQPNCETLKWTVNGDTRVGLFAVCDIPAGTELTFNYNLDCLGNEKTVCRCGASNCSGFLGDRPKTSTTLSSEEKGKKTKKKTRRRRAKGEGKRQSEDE
In words: biochemical. The arrangement: Surface plasmon resonance binding to NSD2 SET domain. The protocol:
To support an on-target mechanism of action for the five inhibitors, surface plasmon resonance (SPR) was used to determine whether each inhibitor interacts with the catalytic SET domain of NSD2. […] Chaetocin bound the SET domain with an apparent dissociation constant of 20 nM. Additionally, the data indicated super-stoichiometric binding, which might be due to a binding ratio higher than 1:1 that is consistent with chaetocin’s two disulfide moieties forming adducts with the NSD2 protein, or compound aggregation (data not shown) ([56]).

The target of assay [3] is PRMT7 (Homo sapiens, UniProt Q9NVM4). In words: biochemical.
Assay [4] deals with T2, GLP (Homo sapiens, UniProt Q9H9B1).
T2 construct: gene EHMT1
T2 sequence (Q9H9B1 1-1298): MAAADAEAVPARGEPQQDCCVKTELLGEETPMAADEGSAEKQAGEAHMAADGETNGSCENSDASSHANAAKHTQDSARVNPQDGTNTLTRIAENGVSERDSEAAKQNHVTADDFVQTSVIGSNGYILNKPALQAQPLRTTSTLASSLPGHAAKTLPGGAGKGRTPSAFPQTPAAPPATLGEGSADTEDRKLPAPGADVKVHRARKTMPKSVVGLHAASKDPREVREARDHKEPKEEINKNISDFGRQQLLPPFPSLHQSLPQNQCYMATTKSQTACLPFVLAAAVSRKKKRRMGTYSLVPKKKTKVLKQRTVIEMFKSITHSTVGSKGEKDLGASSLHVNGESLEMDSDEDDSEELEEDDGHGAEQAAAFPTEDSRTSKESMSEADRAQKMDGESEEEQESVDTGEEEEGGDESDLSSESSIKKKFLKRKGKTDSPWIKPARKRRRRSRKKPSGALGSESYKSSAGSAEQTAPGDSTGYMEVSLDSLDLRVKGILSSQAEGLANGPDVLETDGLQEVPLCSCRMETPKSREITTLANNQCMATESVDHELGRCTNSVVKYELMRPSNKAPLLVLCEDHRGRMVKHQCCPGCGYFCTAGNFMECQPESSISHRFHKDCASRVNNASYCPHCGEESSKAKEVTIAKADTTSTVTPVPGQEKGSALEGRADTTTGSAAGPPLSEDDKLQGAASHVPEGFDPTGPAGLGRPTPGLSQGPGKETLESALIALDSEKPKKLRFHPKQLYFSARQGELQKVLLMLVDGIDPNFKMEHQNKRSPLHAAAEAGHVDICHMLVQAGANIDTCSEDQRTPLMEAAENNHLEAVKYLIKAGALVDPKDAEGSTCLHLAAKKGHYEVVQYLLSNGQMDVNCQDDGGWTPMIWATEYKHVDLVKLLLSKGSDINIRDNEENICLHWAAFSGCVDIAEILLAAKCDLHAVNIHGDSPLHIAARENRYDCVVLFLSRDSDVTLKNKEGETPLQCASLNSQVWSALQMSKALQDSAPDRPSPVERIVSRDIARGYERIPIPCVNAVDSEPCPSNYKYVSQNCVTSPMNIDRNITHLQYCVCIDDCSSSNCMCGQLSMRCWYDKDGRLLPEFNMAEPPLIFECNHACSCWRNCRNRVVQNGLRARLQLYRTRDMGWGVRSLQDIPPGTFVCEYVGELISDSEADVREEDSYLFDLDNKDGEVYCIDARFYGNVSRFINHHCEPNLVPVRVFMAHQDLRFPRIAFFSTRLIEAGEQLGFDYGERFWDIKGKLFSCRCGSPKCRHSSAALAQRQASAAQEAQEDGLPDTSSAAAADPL
In words: biochemical.

The target in assay [5] is T3, NSD3 (Homo sapiens, UniProt Q9BZ95).
T3 sequence (Q9BZ95 1021-1322): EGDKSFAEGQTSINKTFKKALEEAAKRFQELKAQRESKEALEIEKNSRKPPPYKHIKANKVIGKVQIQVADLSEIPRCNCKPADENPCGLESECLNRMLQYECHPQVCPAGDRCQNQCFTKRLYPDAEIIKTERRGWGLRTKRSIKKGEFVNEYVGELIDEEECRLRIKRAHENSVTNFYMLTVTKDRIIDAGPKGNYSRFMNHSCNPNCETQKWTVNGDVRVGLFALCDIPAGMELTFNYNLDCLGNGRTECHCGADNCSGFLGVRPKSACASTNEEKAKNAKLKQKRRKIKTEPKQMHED
In words: biochemical.

Assay [6] addresses T4, SET8 (Homo sapiens, UniProt Q9NQR1).
T4 construct: gene KMT5A
T4 sequence (Q9NQR1 1-393): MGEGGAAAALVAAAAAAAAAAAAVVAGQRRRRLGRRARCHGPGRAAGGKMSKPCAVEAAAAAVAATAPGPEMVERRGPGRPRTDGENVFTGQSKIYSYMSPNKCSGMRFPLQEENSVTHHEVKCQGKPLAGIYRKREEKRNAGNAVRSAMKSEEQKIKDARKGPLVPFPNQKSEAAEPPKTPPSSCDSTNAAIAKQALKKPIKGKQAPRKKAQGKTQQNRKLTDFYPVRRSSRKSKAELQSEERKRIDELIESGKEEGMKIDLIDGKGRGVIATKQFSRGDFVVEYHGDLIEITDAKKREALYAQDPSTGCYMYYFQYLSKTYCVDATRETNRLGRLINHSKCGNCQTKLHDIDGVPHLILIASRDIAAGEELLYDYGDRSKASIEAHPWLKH
In words: biochemical.

Assay [7] deals with T5, DNMT3b (Homo sapiens, UniProt Q9UBC3).
T5 construct: residues 2-853, N-terminal GST fusion, insect cell/baculovirus
In words: HotSpot [3H]SAM filter-binding methyltransferase assay. The assay is classed as biochemical.

The target in assay [8] is T6, NSD1 (Homo sapiens, UniProt Q96L73).
T6 construct: residues 1538-2696, N-terminal His tag, insect cell/baculovirus
T6 sequence (Q96L73 1538-2696): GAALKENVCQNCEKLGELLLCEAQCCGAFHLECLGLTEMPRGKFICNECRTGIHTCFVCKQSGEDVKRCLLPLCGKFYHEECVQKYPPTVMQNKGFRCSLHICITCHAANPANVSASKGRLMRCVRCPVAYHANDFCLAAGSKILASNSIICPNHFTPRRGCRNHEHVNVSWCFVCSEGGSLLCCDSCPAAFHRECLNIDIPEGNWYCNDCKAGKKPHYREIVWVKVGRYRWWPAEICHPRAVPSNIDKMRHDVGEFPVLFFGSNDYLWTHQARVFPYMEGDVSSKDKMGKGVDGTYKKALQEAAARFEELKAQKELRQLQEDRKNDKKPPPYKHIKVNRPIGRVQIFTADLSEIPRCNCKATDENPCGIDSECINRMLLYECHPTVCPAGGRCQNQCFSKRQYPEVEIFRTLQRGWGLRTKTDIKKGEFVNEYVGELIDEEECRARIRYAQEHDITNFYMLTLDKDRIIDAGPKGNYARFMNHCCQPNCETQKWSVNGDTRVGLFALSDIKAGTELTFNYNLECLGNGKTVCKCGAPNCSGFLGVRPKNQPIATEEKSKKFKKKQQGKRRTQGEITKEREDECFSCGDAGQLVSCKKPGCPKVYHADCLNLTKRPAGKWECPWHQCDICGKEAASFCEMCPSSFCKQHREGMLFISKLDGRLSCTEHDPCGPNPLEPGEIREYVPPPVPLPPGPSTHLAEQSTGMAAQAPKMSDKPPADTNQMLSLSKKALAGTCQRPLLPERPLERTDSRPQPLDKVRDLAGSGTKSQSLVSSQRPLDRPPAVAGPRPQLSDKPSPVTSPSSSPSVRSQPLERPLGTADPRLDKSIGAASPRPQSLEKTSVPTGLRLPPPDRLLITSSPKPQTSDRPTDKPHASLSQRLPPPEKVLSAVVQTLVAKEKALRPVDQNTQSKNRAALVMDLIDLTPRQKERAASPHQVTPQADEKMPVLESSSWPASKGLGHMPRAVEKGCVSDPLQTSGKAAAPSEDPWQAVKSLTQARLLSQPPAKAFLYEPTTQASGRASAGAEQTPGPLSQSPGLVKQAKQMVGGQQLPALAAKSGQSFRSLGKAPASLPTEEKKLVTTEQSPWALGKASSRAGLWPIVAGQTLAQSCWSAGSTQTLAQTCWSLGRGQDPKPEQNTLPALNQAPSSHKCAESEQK
The description is as above. The assay is classed as biochemical.

In assay [9] the target is T1, NSD2 SET domain. In words: SPR Biacore 8K, single-cycle kinetics, […] model. In kind it is binding. In general terms: In SPR one partner is held on a chip, and binding of the other changes the refractive index at the surface.
[10] abbreviates: apparent, super-stoichiometric binding, binder.

PRMT7, sequence (Q9NVM4 whole entry): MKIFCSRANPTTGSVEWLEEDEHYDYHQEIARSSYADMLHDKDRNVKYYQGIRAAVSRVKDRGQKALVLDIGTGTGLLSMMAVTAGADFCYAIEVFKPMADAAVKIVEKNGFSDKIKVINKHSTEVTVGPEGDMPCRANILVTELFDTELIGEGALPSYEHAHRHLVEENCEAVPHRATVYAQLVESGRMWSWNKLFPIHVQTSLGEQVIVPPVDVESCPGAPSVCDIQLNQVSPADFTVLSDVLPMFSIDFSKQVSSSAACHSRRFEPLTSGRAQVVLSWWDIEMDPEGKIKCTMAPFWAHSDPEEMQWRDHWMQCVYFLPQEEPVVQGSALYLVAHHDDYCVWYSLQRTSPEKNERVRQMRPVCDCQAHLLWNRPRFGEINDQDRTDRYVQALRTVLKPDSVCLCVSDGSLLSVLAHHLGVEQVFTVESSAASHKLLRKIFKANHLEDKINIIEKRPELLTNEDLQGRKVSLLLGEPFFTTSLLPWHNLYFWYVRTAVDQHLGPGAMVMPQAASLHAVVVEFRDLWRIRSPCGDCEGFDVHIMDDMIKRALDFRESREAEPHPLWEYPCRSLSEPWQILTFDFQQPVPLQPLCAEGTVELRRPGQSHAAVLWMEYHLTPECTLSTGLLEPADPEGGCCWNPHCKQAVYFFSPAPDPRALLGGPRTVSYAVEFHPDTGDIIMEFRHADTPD

Regarding `CN1C(=O)[C@@]23C[C@]4([C@]56C[C@@]78SS[C@@](CO)(C(=O)N7[C@H]5Nc5ccccc56)N(C)C8=O)c5ccccc5N[C@@H]4N2C(=O)[C@]1(CO)SS3` [Chaetocin], the IC50 in assay [1] came out at 0.1 µM; in assay [3], 156000 nM; in [4], 77000 nM; in assay [5] it was 90 nM. For the same compound, the Kd in assay [2] (apparent, super-stoichiometric binding) is 20 nM. Also, the “koff” value in assay [2] (setting [10]) came out at 4.59e-05 s⁻¹. Besides, the “kon” value in assay [2] (setting [10]) is 2210 M⁻¹ s⁻¹.

In the case of `Cc1ccc(NC2=CC(=O)c3sc(C)nc3C2=O)cc1` [Ryuvidine], the IC50 in assay [6] was 950 nM.

As to `Nc1ncnc2c1ncn2[C@@H]1O[C@H](CSCC[C@H](N)C(=O)O)[C@@H](O)[C@H]1O` [SAH, reference compound], the IC50 in assay [7] was 65 nM; in [8], 9700 nM.

Regarding `C[S+](CC[C@H](N)C(=O)O)C[C@H]1O[C@@H](n2cnc3c(N)ncnc32)[C@H](O)[C@@H]1O` (stereo partly shown) [SAM], the koff in [2] (read-out: koff) is 0.017 s⁻¹. Besides, the kon in assay [2] (read-out: kon) amounted to 4060 M⁻¹ s⁻¹. Besides, in assay [9], the Kd was 4200 nM.

(Values after publication doi:10.1101/208439v1 (biorxiv, 2017).)
